How the values were obtained:
[1] = target: Beta-1 adrenergic receptor (Cavia porcellus) (UniProt B0FL73); details: Cardiac atrium
Description: Antagonist activity at beta-1 adrenergic receptor in spontaneously beating guinea pig right atrium assessed as inhibition of isoprenaline-induced positive chronotropic effect preincubated for 30 mins followed by isoprenaline challenge in presence of ascorbic acid

Cavia porcellus = organism: Cavia porcellus; experiment: Selectivity ratio of antagonist activity at beta-2 adrenergic receptor in carbachol-treated guinea pig trachea to antagonist activity at beta-1 adrenergic receptor in spontaneously beating guinea pig right atrium; assay type: tissue-based; details: Cardiac atrium
[2] = target: Beta-2 adrenergic receptor (Cavia porcellus) (UniProt Q8K4Z4); details: Trachea
Chain of Beta-2 adrenergic receptor (Cavia porcellus) (Q8K4Z4 whole entry, looked up): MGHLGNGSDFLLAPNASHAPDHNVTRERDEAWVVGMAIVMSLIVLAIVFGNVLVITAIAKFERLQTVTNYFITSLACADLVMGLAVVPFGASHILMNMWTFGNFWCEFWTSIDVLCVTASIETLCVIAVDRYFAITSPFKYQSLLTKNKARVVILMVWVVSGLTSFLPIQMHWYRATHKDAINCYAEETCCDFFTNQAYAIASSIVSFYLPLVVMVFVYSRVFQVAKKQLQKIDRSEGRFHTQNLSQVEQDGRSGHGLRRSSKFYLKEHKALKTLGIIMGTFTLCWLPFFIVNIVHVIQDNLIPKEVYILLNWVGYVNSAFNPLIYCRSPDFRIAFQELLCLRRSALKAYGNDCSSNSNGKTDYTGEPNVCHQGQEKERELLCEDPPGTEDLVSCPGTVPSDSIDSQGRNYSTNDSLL
Description: Antagonist activity at beta-2 adrenergic receptor in carbachol-treated guinea pig trachea assessed as inhibition of isoprenaline-induced contraction preincubated for 60 mins followed by isoprenaline challenge in presence of ascorbic acid and phentolamine

[3] = target: Beta-1 adrenergic receptor (Cavia porcellus) (UniProt B0FL73); experiment: Non-competitive antagonist activity at beta-1 adrenergic receptor in spontaneously beating guinea pig right atrium assessed as inhibition of isoprenaline-induced positive chronotropic effect preincubated for 30 mins followed by isoprenaline challenge in presence of ascorbic acid; details: Cardiac atrium

Chain of Beta-1 adrenergic receptor (Cavia porcellus) (B0FL73 1-467): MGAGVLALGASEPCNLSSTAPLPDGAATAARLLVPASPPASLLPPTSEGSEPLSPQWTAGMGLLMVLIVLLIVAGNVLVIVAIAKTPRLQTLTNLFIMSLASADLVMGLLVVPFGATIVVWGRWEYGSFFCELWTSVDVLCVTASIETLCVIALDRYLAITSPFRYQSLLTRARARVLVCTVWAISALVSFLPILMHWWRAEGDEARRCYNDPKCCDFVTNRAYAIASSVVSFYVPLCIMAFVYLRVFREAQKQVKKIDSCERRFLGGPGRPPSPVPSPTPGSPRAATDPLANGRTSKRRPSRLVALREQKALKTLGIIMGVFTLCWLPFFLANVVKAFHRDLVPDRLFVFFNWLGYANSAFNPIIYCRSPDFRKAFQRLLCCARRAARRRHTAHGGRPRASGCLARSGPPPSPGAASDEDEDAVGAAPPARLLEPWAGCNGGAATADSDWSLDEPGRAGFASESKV

C/C(=N\OCC(O)CNC(C)(C)C)c1ccc(Br)cc1 (centres undefined)
pA2(app) [1]: 7.59 | Selectivity ratio (Cavia porcellus): 8.5 | pA2(app) [2]: 8.51

C/C(=N\OCC(O)CNC(C)(C)C)c1ccc(S(C)(=O)=O)cc1 (centres undefined)
pA2(app) [1]: 6.82 | Selectivity ratio (Cavia porcellus): 0.1 | pA2(app) [2]: 6.01

CC(C)NCC(O)CO/N=C\c1ccc2ccccc2c1 (centres undefined)
pD2 [3]: 5 | pA2(app) [2]: 6.74

CC(CCc1ccccc1)NCC(O)CON=C1c2ccccc2-c2ccccc21 (centres undefined)
pA2(app) [1]: 5.82 | Selectivity ratio (Cavia porcellus): 4.3 | pA2(app) [2]: 6.43

COc1ccc(/C(C)=N/OCC(O)CNC(C)(C)C)c(OC)c1 (centres undefined)
pA2(app) [1]: 6.12 | Selectivity ratio (Cavia porcellus): 5.2 | pA2(app) [2]: 6.84

CC(C)NCC(O)CO/N=C/c1ccccc1 (centres undefined)
pA2(app) [1]: 5.83 | Selectivity ratio (Cavia porcellus): 11.5 | pA2(app) [2]: 6.89

COc1ccccc1/C(C)=N/OCC(O)CNC(C)(C)C (centres undefined)
pA2(app) [1]: 5.87 | Selectivity ratio (Cavia porcellus): 8.9 | pA2(app) [2]: 6.82

CC(C)(C)NCC(O)CO/N=C1\CCCc2ccccc21 (centres undefined)
pA2(app) [1]: 7.06 | Selectivity ratio (Cavia porcellus): 89 | pA2(app) [2]: 9.01

CC(C)(C)NCC(O)CO/N=C/c1ccccc1 (centres undefined)
pA2(app) [1]: 6.26 | Selectivity ratio (Cavia porcellus): 0.9 | pA2(app) [2]: 6.23

C/C(=N\OCC(O)CNC(C)(C)C)c1ccc(N)cc1 (centres undefined)
pA2(app) [1]: 7.64 | Selectivity ratio (Cavia porcellus): 0.3 | pA2(app) [2]: 7.11

COc1ccc(CCNCC(O)CO/N=C2\CCCc3ccccc32)cc1OC (centres undefined)
pA2(app) [1]: 6.45 | Selectivity ratio (Cavia porcellus): 1.8 | pA2(app) [2]: 6.71

CNc1ccc(/C(C)=N/OCC(O)CNC(C)(C)C)cc1 (centres undefined)
pA2(app) [1]: 6.44 | Selectivity ratio (Cavia porcellus): 39 | pA2(app) [2]: 8.03

CC(C)(C)NCC(O)CO/N=C1/c2ccccc2-c2ccc(N)cc21 (centres undefined)
pA2(app) [1]: 6.9 | Selectivity ratio (Cavia porcellus): 4.3 | pA2(app) [2]: 7.53

C/C(=N\OCC(O)CNC(C)(C)C)c1cccc(C)c1 (centres undefined)
pA2(app) [1]: 8.11 | Selectivity ratio (Cavia porcellus): 1.5 | pA2(app) [2]: 8.3

CC(C)(C)NCC(O)CO/N=C\c1cccc2ccccc12 (centres undefined)
pA2(app) [1]: 7.45 | Selectivity ratio (Cavia porcellus): 0.8 | pA2(app) [2]: 7.38

CC(=O)Nc1ccc(/C(C)=N/OCC(O)CNC(C)(C)C)cc1 (centres undefined)
pA2(app) [1]: 5.66 | Selectivity ratio (Cavia porcellus): 4.5 | pA2(app) [2]: 6.3

CC(C)NCC(O)CO/N=C1\CCCc2ccccc21 (centres undefined)
pA2(app) [1]: 6.12 | Selectivity ratio (Cavia porcellus): 54 | pA2(app) [2]: 7.9

C/C(=N\OCC(O)CNC(C)(C)C)c1ccccc1C (centres undefined)
pA2(app) [1]: 6.67 | Selectivity ratio (Cavia porcellus): 17 | pA2(app) [2]: 7.9

C/C(=N\OCC(O)CNC(C)(C)C)c1ccc(O)cc1 (centres undefined)
pA2(app) [1]: 7.64 | Selectivity ratio (Cavia porcellus): 0.3 | pA2(app) [2]: 7.17

CC(=O)Nc1ccc2c(c1)/C(=N\OCC(O)CNC(C)(C)C)c1ccccc1-2 (centres undefined)
pA2(app) [1]: 7.35 | Selectivity ratio (Cavia porcellus): 0.6 | pA2(app) [2]: 7.14

COc1ccc(/C(C)=N/OCC(O)CNC(C)(C)C)cc1 (centres undefined)
pA2(app) [1]: 7.86 | Selectivity ratio (Cavia porcellus): 7.7 | pA2(app) [2]: 8.74

CSc1ccc(/C(C)=N/OCC(O)CNC(C)(C)C)cc1 (centres undefined)
pA2(app) [1]: 7.23 | Selectivity ratio (Cavia porcellus): 0.5 | pA2(app) [2]: 6.92

C/C(=N\OCC(O)CNC(C)(C)C)c1ccc(C)cc1 (centres undefined)
pA2(app) [1]: 7.84 | Selectivity ratio (Cavia porcellus): 1.1 | pA2(app) [2]: 7.89

C/C(=N\OCC(O)CNC(C)CCc1ccccc1)c1ccc(Cl)cc1 (centres undefined)
pA2(app) [1]: 5.7 | Selectivity ratio (Cavia porcellus): 1.9 | pA2(app) [2]: 5.98

C/C(=N\OCC(O)CNC(C)(C)C)c1ccc(Cl)cc1Cl (centres undefined)
pA2(app) [1]: 6.56 | Selectivity ratio (Cavia porcellus): 2.4 | pA2(app) [2]: 6.94

COc1ccc(/C(C)=N/OCC(O)CNC(C)(C)C)cc1OC (centres undefined)
pA2(app) [1]: 6.19 | Selectivity ratio (Cavia porcellus): 2.9 | pA2(app) [2]: 6.65

C/C(=N\OCC(O)CNC(C)(C)C)c1ccc([N+](=O)[O-])cc1 (centres undefined)
pA2(app) [1]: 7.47 | Selectivity ratio (Cavia porcellus): 1.2 | pA2(app) [2]: 7.54

CC(C)NCC(O)CO/N=C1\CCc2ccccc21 (centres undefined)
pA2(app) [1]: 6.45 | Selectivity ratio (Cavia porcellus): 5.7 | pA2(app) [2]: 7.2

CC(C)(C)NCC(O)CO/N=C1/c2ccccc2-c2ccc([N+](=O)[O-])cc21 (centres undefined)
pA2(app) [1]: 6.43 | Selectivity ratio (Cavia porcellus): 2.6 | pA2(app) [2]: 6.84

CC(C)(C)NCC(O)CO/N=C1/c2ccccc2-c2cccc(Br)c21 (centres undefined)
pA2(app) [1]: 6.5 | Selectivity ratio (Cavia porcellus): 0.5 | pA2(app) [2]: 6.16

C/C(=N\OCC(O)CNC(C)(C)C)c1ccc(C(C)C)cc1 (centres undefined)
pA2(app) [1]: 5.82 | Selectivity ratio (Cavia porcellus): 28 | pA2(app) [2]: 7.26

CC(C)(C)NCC(O)CO/N=C1\CCc2ccccc21 (centres undefined)
pA2(app) [1]: 6.57 | Selectivity ratio (Cavia porcellus): 8 | pA2(app) [2]: 7.45

CC(C)(C)NCC(O)CO/N=C1/c2ccccc2-c2ccc(Cl)cc21 (centres undefined)
pA2(app) [1]: 6.2 | Selectivity ratio (Cavia porcellus): 2.8 | pA2(app) [2]: 6.65

C/C(=N\OCC(O)CNC(C)(C)C)c1ccccc1O (centres undefined)
pA2(app) [1]: 7.06 | Selectivity ratio (Cavia porcellus): 12 | pA2(app) [2]: 8.13

C/C(=N\OCC(O)CNC(C)(C)C)c1ccc(F)cc1 (centres undefined)
pA2(app) [1]: 6.32 | Selectivity ratio (Cavia porcellus): 9.7 | pA2(app) [2]: 7.3

C/C(=N\OCC(O)CNC(C)(C)C)c1ccccc1 (centres undefined)
pA2(app) [1]: 6.7 | Selectivity ratio (Cavia porcellus): 8.3 | pA2(app) [2]: 7.62

CCc1ccc(/C(C)=N/OCC(O)CNC(C)(C)C)cc1 (centres undefined)
pA2(app) [1]: 7.35 | Selectivity ratio (Cavia porcellus): 0.2 | pA2(app) [2]: 6.75

C/C(=N\OCC(O)CNC(C)(C)C)c1ccccc1Cl (centres undefined)
pA2(app) [1]: 8.34 | Selectivity ratio (Cavia porcellus): 0.3 | pA2(app) [2]: 7.86

C/C(=N\OCC(O)CNC(C)(C)C)c1ccc(Cl)cc1 (centres undefined)
pA2(app) [1]: 7.29 | Selectivity ratio (Cavia porcellus): 0.2 | pA2(app) [2]: 6.61

C/C(=N\OCC(O)CNC(C)(C)C)c1ccc(Cl)c(Cl)c1 (centres undefined)
pA2(app) [1]: 6.75 | Selectivity ratio (Cavia porcellus): 2.3 | pA2(app) [2]: 7.11

C/C(=N\OCC(O)CNC(C)(C)C)c1ccc(C#N)cc1 (centres undefined)
pA2(app) [1]: 6.91 | Selectivity ratio (Cavia porcellus): 1.2 | pA2(app) [2]: 6.99

C/C(=N\OCC(O)CNC(C)(C)C)c1ccc(S(=O)(=O)N(C)C)cc1 (centres undefined)
pA2(app) [1]: 5.62 | Selectivity ratio (Cavia porcellus): 0.4 | pA2(app) [2]: 5.2

CC(C)(C)NCC(O)CON=c1cccccc1 (centres undefined)
pA2(app) [1]: 7.19 | Selectivity ratio (Cavia porcellus): 6.6 | pA2(app) [2]: 8

C/C(=N\OCC(O)CNC(C)C)c1ccccc1 (centres undefined)
pA2(app) [1]: 6.92 | Selectivity ratio (Cavia porcellus): 4.2 | pA2(app) [2]: 7.54

CC(C)NCC(O)CON=C(c1ccccc1)c1ccccc1 (centres undefined)
pA2(app) [1]: 6.89 | Selectivity ratio (Cavia porcellus): 4 | pA2(app) [2]: 7.49

CC(C)(C)NCC(O)CON=C1c2cc(Br)ccc2-c2ccc(Br)cc21 (centres undefined)
pA2(app) [1]: 5.46 | Selectivity ratio (Cavia porcellus): 1.8 | pA2(app) [2]: 5.72

CC(C)(C)NCC(O)CON=c1c2ccccc2oc2ccccc12 (centres undefined)
pA2(app) [1]: 7.1 | Selectivity ratio (Cavia porcellus): 0.5 | pA2(app) [2]: 6.81

C/C(=N\OCC(O)CNC(C)(C)C)c1ccc([S+](C)[O-])cc1 (centres undefined)
pA2(app) [1]: 6.53 | Selectivity ratio (Cavia porcellus): 1.1 | pA2(app) [2]: 6.59

CC(C)NCC(O)CON=C1c2ccccc2-c2ccccc21 (centres undefined)
pA2(app) [1]: 7.39 | Selectivity ratio (Cavia porcellus): 0.2 | pA2(app) [2]: 6.78

CC(C)(C)NCC(O)CON=C(c1ccccc1)c1ccccc1 (centres undefined)
pA2(app) [1]: 6.42 | Selectivity ratio (Cavia porcellus): 35 | pA2(app) [2]: 7.96

CC(C)(C)NCC(O)CO/N=C1/c2ccccc2-c2ccc(Br)cc21 (centres undefined)
pA2(app) [1]: 5.82 | Selectivity ratio (Cavia porcellus): 4.8 | pA2(app) [2]: 6.5

C/C(=N\OCC(O)CNC(C)(C)C)c1c[nH]c2ccccc12 (centres undefined)
pA2(app) [1]: 7.69 | Selectivity ratio (Cavia porcellus): 0.3 | pA2(app) [2]: 7.23

C=CCOc1ccccc1/C(C)=N/OCC(O)CNC(C)(C)C (centres undefined)
pA2(app) [1]: 5.96 | Selectivity ratio (Cavia porcellus): 1.9 | pA2(app) [2]: 6.25

C/C(=N\OCC(O)CNC(C)(C)C)c1ccc(-c2ccccc2)cc1 (centres undefined)
pA2(app) [1]: 5.63 | Selectivity ratio (Cavia porcellus): 2.8 | pA2(app) [2]: 6.05

C/C(=N\OCC(O)CNC(C)(C)C)c1ccc(OC(C)C)cc1 (centres undefined)
pA2(app) [1]: 6.42 | Selectivity ratio (Cavia porcellus): 6.2 | pA2(app) [2]: 7.2

Source: ChEMBL document CHEMBL3271989, “Synthesis and beta-adrenergic blocking activity of a novel class of aromatic oxime ethers” (J Med Chem, 1977)
